The results in this text go back to patent publication US20090124636A1, “CHEMICAL COMPOUNDS” (priority 2006, published 2009).

In the first experiment the test system is HIV-1 fusion. Nature of the experiment: cells. The experiment is classed as cell-based. Particulars: HIV cell fusion assay; HeLa P4 (CCR5/CD4) and CHO-Tat10 (gp160 JRFL) cells; read-out: IC50. As for the experimental part: The gp160 induced cell-cell fusion assay uses a HeLa P4 cell line and a CHO-Tat10 cell line.
The HeLa P4 cell line expresses CCR5 and CD4 and has been transfected with HIV-1 LTR-β-Galactosidase. The media for this cell line is Dulbecco modified eagle's medium (D-MEM) (without L-glutamine) containing 10% foetal calf serum (FCS), 2 mM L-glutamine, penicillin/streptomycin (Pen/Strep; 100 U/mL penicillin+[…] streptomycin), and 1 μg/ml puromycin.
The CHO cell line is a Tat (transcriptional trans activator)-expressing clone from a CHO JRR17.1 cell line that has been transfected with pTat puro plasmid. The media for this cell line is rich medium for mammalian cell culture originally developed at Roswell Park Memorial Institute RPMI1640 (without L-glutamine) containing 10% FCS, 2 mM L-glutamine, 0.5 mg/ml Hygromycin B and 12 μg/ml puromycin. The CHO JRR17.1 line expresses gp160 (JRFL) and is a clone that has been selected for its ability to fuse with a CCR5/CD4 expressing cell line.
Upon cell fusion, Tat present in the CHO cell is able to transactivate the HIV-1 long terminal repeat (LTR) present in the HeLa cell leading to the expression of the β-Galactosidase enzyme. This expression is then measured using a Fluor Ace™ β-Galactosidase reporter assay kit (Bio-Rad cat no. 170-3150). This kit is a quantitative fluorescent assay that determines the level of expression of β-galactosidase using 4-methylumbelliferyl-galactopyranoside (MUG) as substrate. β-Galactosidase hydrolyses the fluorogenic substrate resulting in release of the fluorescent molecule 4-methylumbelliferone (4 MU). Fluorescence of 4-methylumbelliferone is then measured on a fluorometer using an excitation wavelength of 360 nm and emission wavelength of 460 nm.
In general, IC50 refers to the point on the concentration scale where inhibition reaches its midpoint. For `Cc1cccc(C)c1C(=O)N1CCC(N2CC[C@@H](N(Cc3ccccc3F)C(=O)C3CC3)C2)CC1` [Example 3], the concentration for half-maximal inhibition (IC50) was 0.2 nM.

Consider `COCC(=O)N(Cc1ccccc1)[C@@H]1CCN(C2CCN(C(=O)c3c(C)cccc3C)CC2)C1` [Example 4], for which the half-inhibitory concentration (IC50) worked out at 0.23 nM.

`Cc1cccc(C)c1C(=O)N1CCC(N2CC[C@@H](N(Cc3ccccc3)C(=O)C3CCC3)C2)CC1` [Example 5]: the IC50 stood at 0.27 nM.

`Cc1cccc(C)c1C(=O)N1CCC(N2CC[C@@H](N(Cc3ccccc3)C(=O)CC(F)(F)F)C2)CC1` [Example 6]: the IC50 stood at 0.34 nM.

With `Cc1cccc(C)c1C(=O)N1CCC(N2CC[C@@H](N(Cc3ccccc3)C(=O)C(C)C)C2)CC1` [Example 8], the IC50 amounted to 0.63 nM.

Regarding `Cc1cccc(C)c1C(=O)N1CCC(N2CC[C@@H](N(Cc3cccc(F)c3)C(=O)C3CC3)C2)CC1` [Example 9], the IC50 worked out at 0.8 nM.

For the compound `Cc1cccc(C)c1C(=O)N1CCC(N2CC[C@@H](N(Cc3ccccc3)C(=O)C3CC3)C2)CC1` [Example 10], the IC50 was 1.99 nM.

For `CC(=O)N(Cc1ccccc1)[C@@H]1CCN(C2CCN(C(=O)c3c(C)cccc3C)CC2)C1` [Example 11], the IC50 is 3.05 nM.

On to `Cc1cccc(C)c1C(=O)N1CCC(N2CC[C@@H](N(Cc3ccccc3)C(=O)c3ccccc3)C2)CC1` [Example 12], for which the IC50 was determined as 4.06 nM.

As for `COCCC(=O)N(Cc1ccccc1)[C@@H]1CCN(C2CCN(C(=O)c3c(C)cccc3C)CC2)C1` [Example 13], the IC50 is 4.83 nM.

Take `CC(=O)N(Cc1ccccc1F)[C@@H]1CCN(C2CCN(C(=O)c3c(C)cccc3C)CC2)C1` [Example 14]: the IC50 stood at 13 nM.

Consider `Cc1cccc(C)c1C(=O)N1CCC(N2CC[C@@H](N(Cc3ccc(F)cc3)C(=O)C3CC3)C2)CC1` [Example 15], for which the concentration for half-maximal inhibition (IC50) is 34.1 nM.

Consider `Cc1cccc(C)c1C(=O)N1CCC(N2CC[C@@H](N(Cc3ccccn3)C(=O)C3CC3)C2)CC1` [Example 16], for which the IC50 worked out at 237 nM.

On to `Cc1ccccc1C(=O)N1CCC(N2CC[C@@H](N(Cc3ccccc3)C(=O)C3CC3)C2)CC1` [Example 17], for which the concentration for half-maximal inhibition (IC50) is 40.8 nM.

As to `Cc1ccc(C(=O)N2CCC(N3CC[C@@H](N(Cc4ccccc4)C(=O)C4CC4)C3)CC2)c(C)c1` [Example 20], the IC50 was 221 nM.

`Cc1ccnc(C)c1C(=O)N1CCC(N2CC[C@@H](N(Cc3ccccc3)C(=O)C3CC3)C2)CC1` [Example 21]: the 50% inhibitory concentration (IC50) came out at 0.82 nM.

For `Cc1ccnc(C)c1C(=O)N1CCC(N2CC[C@@H](N(Cc3ccccc3)C(=O)C3CC(F)(F)C3)C2)CC1` [Example 22], the IC50 was 1.21 nM.

On to `COCC(=O)N(Cc1cc(F)ccc1F)[C@@H]1CCN(C2CCN(C(=O)c3c(C)ccnc3C)CC2)C1` [Example 23], for which the IC50 was determined as 1.42 nM.

For the compound `COCC(=O)N(Cc1ccccc1F)[C@@H]1CCN(C2CCN(C(=O)c3c(C)ccnc3C)CC2)C1` [Example 24], the concentration for half-maximal inhibition (IC50) was found to be 119 nM.

As for `COCC(=O)N(Cc1cccc(F)c1)[C@@H]1CCN(C2CCN(C(=O)c3c(C)ccnc3C)CC2)C1` [Example 25], the IC50 is 5.04 nM.

In the case of `COCC(=O)N(Cc1cccc(F)c1F)[C@@H]1CCN(C2CCN(C(=O)c3c(C)ccnc3C)CC2)C1` [Example 26], the IC50 turned out to be 6.51 nM.

Turning to `Cc1ccnc(C)c1C(=O)N1CCC(N2CC[C@@H](N(Cc3ccccc3F)C(=O)C(C)C)C2)CC1` [Example 27], the concentration for half-maximal inhibition (IC50) came out at 8.8 nM.

Turning to `Cc1ccnc(C)c1C(=O)N1CCC(N2CC[C@@H](N(Cc3ccccc3F)C(=O)C3CC(F)(F)C3)C2)CC1` [Example 28], the IC50 was determined as 12.4 nM.

Take `CC(=O)N(Cc1ccccc1)[C@@H]1CCN(C2CCN(C(=O)c3c(C)ccnc3C)CC2)C1` [Example 29]: the IC50 stood at 14 nM.

Turning to `Cc1ccnc(C)c1C(=O)N1CCC(N2CC[C@@H](N(Cc3ccccc3)C(=O)C(C)C)C2)CC1` [Example 30], the half-maximal inhibitory concentration (IC50) was 18.9 nM.

For the compound `Cc1ccnc(C)c1C(=O)N1CCC(N2CC[C@@H](N(Cc3cccc(F)c3)C(=O)C3CC(F)(F)C3)C2)CC1` [Example 32], the concentration for half-maximal inhibition (IC50) was determined as 34.7 nM.

Regarding `Cc1ccnc(C)c1C(=O)N1CCC(N2CC[C@@H](N(Cc3cccc(F)c3)C(=O)C(C)C)C2)CC1` [Example 33], the IC50 was found to be 42.2 nM.

As to `Cc1ncnc(C)c1C(=O)N1CCC(N2CC[C@@H](N(Cc3ccccc3)C(=O)C3CC(F)(F)C3)C2)CC1` [Example 34], the half-inhibitory concentration (IC50) worked out at 8.51 nM.

For `Cc1ncnc(C)c1C(=O)N1CCC(N2CC[C@@H](N(Cc3ccccc3)C(=O)C3CC3)C2)CC1` [Example 35], the concentration for half-maximal inhibition (IC50) turned out to be 9.9 nM.

As for `Cc1ncnc(C)c1C(=O)N1CCC(N2CC[C@@H](N(Cc3ccccc3)C(=O)OC(C)C)C2)CC1` [Example 36], the IC50 is 52 nM.

Turning to `Cc1ncnc(C)c1C(=O)N1CCC(N2CC[C@@H](N(Cc3ccccc3F)C(=O)C3CC(F)(F)C3)C2)CC1` [Example 37], the IC50 is 62.6 nM.

For `CCOC(=O)N(Cc1ccccc1)[C@@H]1CCN(C2CCN(C(=O)c3c(C)ncnc3C)CC2)C1` [Example 38], the IC50 is 135 nM.

Regarding `Cc1ncnc(C)c1C(=O)N1CCC(N2CC[C@@H](N(Cc3cccc(F)c3)C(=O)C3CC(F)(F)C3)C2)CC1` [Example 39], the 50% inhibitory concentration (IC50) was determined as 227 nM.

For `CCOc1ccccc1C(=O)N1CCC(N2CC[C@@H](N(Cc3ccccc3)C(=O)C3CCC3)C2)CC1` [Example 40], the half-maximal inhibitory concentration (IC50) turned out to be 120 nM.

As to `Cc1onc(-c2ccccc2)c1C(=O)N1CCC(N2CC[C@@H](N(Cc3ccccc3)C(=O)C3CC3)C2)CC1` [Example 41], the IC50 stood at 0.41 nM.

Take `Cc1onc(C(C)C)c1C(=O)N1CCC(N2CC[C@@H](N(Cc3ccccc3)C(=O)C3CC3)C2)CC1` [Example 42]: the IC50 was found to be 66.3 nM.

Regarding `CCc1cnn(C)c1C(=O)N1CCC(N2CC[C@@H](N(Cc3ccccc3)C(=O)C3CC3)C2)CC1` [Example 43], the IC50 stood at 59.8 nM.

Consider `COCC(=O)N(Cc1ccccc1F)[C@@H]1CCN(C2CCN(C(=O)c3c(Cl)cccc3Cl)CC2)C1` [Example 44], for which the IC50 turned out to be 1.84 nM.

Regarding `Cc1cccc(C(=O)N2CCC(N3CC[C@@H](N(Cc4ccccc4)C(=O)CC4CC4)C3)CC2)c1Cl` [Example 46], the half-inhibitory concentration (IC50) was 107 nM.

On to `O=C(c1c(F)cccc1Cl)N1CCC(N2CC[C@@H](N(Cc3ccccc3)C(=O)C3CC3)C2)CC1` [Example 49], for which the concentration for half-maximal inhibition (IC50) stood at 28.5 nM.

With `COCC(=O)N(Cc1ccccc1F)[C@@H]1CCN(C2CCN(C(=O)c3c(F)cccc3Cl)CC2)C1` [Example 50], the IC50 is 77.7 nM.

Turning to `O=C(c1c(F)cccc1Cl)N1CCC(N2CC[C@@H](N(Cc3ccccc3)C(=O)CC3CC3)C2)CC1` [Example 51], the half-inhibitory concentration (IC50) turned out to be 100 nM.

On to `COc1cc(Cl)ccc1C(=O)N1CCC(N2CC[C@@H](N(Cc3ccccc3)C(=O)C3CC3)C2)CC1` [Example 53], for which the concentration for half-maximal inhibition (IC50) is 104 nM.

Take `Cc1cc[n+]([O-])c(C)c1C(=O)N1CCC(N2CC[C@@H](N(Cc3ccccc3)C(=O)C3CC3)C2)CC1` [Example 54]: the IC50 was found to be 34.3 nM.

On to `COCC(=O)N(Cc1ccccc1)[C@@H]1CCN(C2CCN(C(=O)c3ccccc3C(F)(F)F)CC2)C1` [Example 55], for which the half-inhibitory concentration (IC50) amounted to 48.1 nM.

The experiment is the same for the next values; noted with them: HIV cell fusion assay; unit μm printed under the cell; read-out: IC50.
In the case of `O=C(c1ccccc1)N1CCC(N2CC[C@@H](N(Cc3ccccc3)C(=O)C3CC3)C2)CC1` [Example 56], the IC50 worked out at 1900 nM.

On to `COc1ccc(C(=O)N2CCC(N3CC[C@@H](N(Cc4ccccc4)C(=O)CC4CC4)C3)CC2)cc1C` [Example 57], for which the IC50 was found to be 6200 nM.

Staying with this experiment, now noted: Human immunodeficiency virus 1, HeLaP4.
With `Cc1cccc(C)c1C(=O)N1CCC(N2CC[C@@H](N(Cc3cccc(Cl)c3)C(=O)C3CC3)C2)CC1` [Example 1, N-(3-chlorobenzyl)-N-{(3R)-1-[1-(2,6-dimethylbenzoyl)piperidin-4-yl]pyrrolidin-3-yl}cyclopropanecarboxamide], the IC50 turned out to be 0.14 nM.

In turn, `Cc1cccc(C)c1C(=O)N1CCC(N2CC[C@@H](N(Cc3ccccc3)S(C)(=O)=O)C2)CC1` [Example 58, N-benzyl-N-{(3R)-1-[1-(2,6-dimethylbenzoyl)piperidin-4-yl]pyrrolidin-3-yl}methanesulfonamide] returned a half-inhibitory concentration (IC50) of 92.5 nM.

Take `CCCNC(=O)N(Cc1ccccc1F)[C@@H]1CCN(C2CCN(C(=O)c3c(C)cccc3C)CC2)C1` [Example 59, N-[(3R)-1-[1-(2,6-dimethylbenzoyl)piperidin-4-yl]pyrrolidin-3-yl]-N-(2-fluorobenzyl)-N′-propylurea]: it took 0.02 nM to reach half-maximal inhibition (IC50).

Compound `Cc1ccnc(C)c1C(=O)N1CCC(N2CC[C@@H](N(Cc3ccccc3)C(=O)C3CC3)C2)[C@H](C)C1` (stereo partly drawn) [Example 60, N-benzyl-N-((3R)-1-{1-[(2,4-dimethylpyridin-3-yl)carbonyl]-3-methylpiperidin-4-yl}pyrrolidin-3-yl)cyclopropanecarboxamide] registered an IC50 of 4.46 nM.

Regarding `Cc1cccc(C)c1C(=O)N1CCC(C)(N2CC[C@@H](N(Cc3ccccc3)C(=O)C3CC3)C2)CC1` [Example 61, N-benzyl-N-{(3R)-1-[1-(2,6-dimethylbenzoyl)-4-methylpiperidin-4-yl]pyrrolidin-3-yl}cyclopropanecarboxamide], the 50% inhibitory concentration (IC50) worked out at 0.23 nM.
